Patent publication US9951058B2, “Compound, pharmaceutically acceptable salt or optical isomer thereof, method for preparing the same, and pharmaceutical composition for prevention or treatment of viral diseases containing same as active ingredient” (Korea Research Institute of Chemical Technology, priority 2012, dated 2018)
In brackets after ≈: the same amount, converted by molar mass. Like-named read-outs stand apart in the source and are kept apart here.

How the values were obtained:
[1] = test system: HRV 14; assay: Cytopathic effect (CPE) inhibition assay; format: cell-based, human rhinovirus; conditions: for EC50 HRV 14: host cell HeLa, 3 days, MEM/2% FBS, MTT assay
[2] = test system: HRV 21; assay: Cytopathic effect (CPE) inhibition assay; format: cell-based, human rhinovirus; conditions: for EC50 HRV 21: host cell HeLa, 3 days, MEM/2% FBS, MTT assay
[3] = test system: HRV 71; assay: Cytopathic effect (CPE) inhibition assay; format: cell-based, human rhinovirus; conditions: for EC50 HRV 71: host cell HeLa, 3 days, MEM/2% FBS, MTT assay
[4] = test system: coxsackievirus B1 (Cox B1); assay: Multicycle cytopathic effect (CPE) reduction assay; format: cell-based; conditions: for EC50 CoxB1: 100 CCID50, MTS, 37° C., 3 days
[5] = test system: coxsackievirus B3 (Cox B3); assay: Multicycle cytopathic effect (CPE) reduction assay; format: cell-based; conditions: for EC50 CoxB3: 100 CCID50, MTS, 37° C., 3 days
[6] = test system: poliovirus 3 (PV3); assay: microbe, parasite or virus in culture; format: cell-based; conditions: for EC50 PV3: 100 CCID50, MTS, 37° C., 3 days
[7] = test system: HeLa (human cervical cancer cells)
[8] = test system: HeLa; assay: Cytotoxicity (CC50) in multicycle CPE reduction assay, MTS; conditions: Table 4; MTS, 37° C., 3 days
[9] = as above; conditions: human
[10] = Cytotoxicity (CC50) in mock-infected cells, CPE inhibition assay, MTT; conditions: human
[11] = test system: HeLa (human cervical cancer cells); assay: as above; conditions: Table 3; mock-infected cells, MTT assay, 2-3 days
[12] = test system: 48 rhinovirus types and coxsackievirus A21, B3, enterovirus 70 and echovirus 11; conditions: Pattick et al. 1999; cited from earlier work

Row | Molecule | EC50 HRV 14 [1] | EC50 HRV 21 [2] | EC50 HRV 71 [3] | EC50 CoxB1 [4] | EC50 CoxB3 [5] | EC50 PV3 [6] | CC50 Cytotoxicity [7] | CC50 Cytotoxicity [8] | EC50 ([1]; Human rhinovirus sp., HeLa, 72 h, read-out: EC50 HRV 14) | EC50 ([2]; Human rhinovirus sp., HeLa, 72 h, read-out: EC50 HRV 21) | EC50 ([3]; Human rhinovirus sp., HeLa, 72 h, read-out: EC50 HRV 71) | EC50 ([4]; Enterovirus B, B1, 72 h, read-out: EC50 CoxB1) | EC50 ([5]; Enterovirus B, B3, 72 h, read-out: EC50 CoxB3) | EC50 ([6]; Enterovirus C, 72 h, read-out: EC50 PV3) | CC50 at 3 days [9] | CC50 [10] | CC50 Cytotoxicity [11] | concentration range of effect in the cell culture [12]
1 | CC(C)c1ccc2c(c1)OC1(O)c3ccccc3C(=O)C21NC(=O)CCC(=O)O (stereo not drawn) [Example 57, 4-((4b-hydroxy-7-isopropyl-10-oxo-4b, 10-dihydro-9bH-indeno[1,2-b]benzofuran-9b-yl)amino)-4-oxo butanoic acid] | <10.0 µg/mL | >10.0 µg/mL | >10.0 µg/mL | <1.0 µg/mL | <1.0 µg/mL | >10.0 µg/mL | >10.0 µg/mL | >10.0 µg/mL |  |  |  |  |  |  |  |  |  | 
2 | CC(C)c1ccc2c(c1)OC1(O)c3c(cccc3[N+](=O)[O-])C(=O)C21NC(=O)C(=O)Cc1ccccc1[N+](=O)[O-] (stereo not drawn) [Example 25, N-(4b-hydroxy-7-isopropyl-4-nitro-10-oxo-4b, 10-dihydro-9bH-indeno[1,2-b]benzofuran-9b-yl)-3-(2-nitrophenyl)-2-oxo propanamide] |  |  |  |  |  |  |  |  | > 2.6 µg/mL | > 2.6 µg/mL | > 2.6 µg/mL | < 1 µg/mL | < 1 µg/mL | > 9.5 µg/mL | 9.5 µg/mL (≈ 17.9 µM) | 2.6 µg/mL (≈ 4.89 µM) |  | 
3 | N-(1-amino-4b-hydroxy-7-isopropyl-10-oxo-4b, 10-dihydro-9bH-indeno[1,2-b]benzofuran-9b-yl)-2-oxo hexanamide [Example 50] | <0.1 µg/mL | >10.0 µg/mL | >10.0 µg/mL | <0.1 µg/mL | <0.1 µg/mL | <1.0 µg/mL |  | >10.0 µg/mL |  |  |  |  |  |  |  |  | >10.0 µg/mL | 
4 | N-(4b-hydroxy-7-isopropyl-4-nitro-10-oxo-4b, 10-dihydro-9bH-indeno[1,2-b]benzofuran-9b-yl)-2-oxo-4-phenyl butanamide [Example 59] | <0.1 µg/mL | >8.6 µg/mL | >8.6 µg/mL | <0.1 µg/mL | <0.1 µg/mL | <0.1 µg/mL |  | >10.0 µg/mL |  |  |  |  |  |  |  |  | 8.6 µg/mL | 
5 | CCOC(=O)/C=C/[C@H](C[C@@H]1CCNC1=O)NC(=O)[C@@H](CC(=O)[C@@H](NC(=O)c1cc(C)on1)C(C)C)Cc1ccc(F)cc1 [AG 7088] |  |  |  |  |  |  |  |  |  |  |  |  |  |  |  |  |  | nanomolar concentration range
